Patent US20260022142A1, “MACROCYCLIC IMMUNOMODULATORS” (Bristol-Myers Squibb Company, priority 2022, published 2026)
Bridge positions count the residues as written; N and C are the ends. Square brackets hold non-standard residues; d marks the D form. Peptide text beside a SMILES is read from it. * marks the point of attachment. Phe(3-CF3) = N[C@@H](Cc1cccc(C(F)(F)F)c1)C(=O)O; Ala(morpholin-4-yl) = N[C@@H](CN1CCOCC1)C(=O)O; Phe(4-COOH) = N[C@@H](Cc1ccc(C(=O)O)cc1)C(=O)O; Bip = N[C@@H](Cc1ccc(-c2ccccc2)cc1)C(=O)O; NH(CH2)14COOH = O=C(O)CCCCCCCCCCCCCCN*; NH(CH2)12COOH = O=C(O)CCCCCCCCCCCCN*; Val(3-OH) = CC(C)(O)[C@H](N)C(=O)O; Cha = N[C@@H](CC1CCCCC1)C(=O)O; PEG4 = NCCOCCOCCOCCOCCC(=O)O; Carboxymethyl = O=C(O)C*; Nle = CCCC[C@H](N)C(=O)O; Orn = NCCC[C@H](N)C(=O)O; Dab = NCC[C@H](N)C(=O)O; AEEA = NCCOCCOCC(=O)O

Target: T1, PD-1/PD-L1 interaction (PE-labeled human PD-L1-Ig binding to Jurkat cell line over-expressing human PD-1) (Homo sapiens, UniProt Q15116)
T1 construct: expressed in transfected cells; host or cells: Jurkat
Test: Jurkat-PD-1 Cell Binding High-Content Screening Assay (CBA)
Assay type: cell-based
Conditions: Jurkat cell line over-expressing human PD-1; PE-labeled PD-L1-Ig 20 nM final; read-out: Jurkat hPD1-PDL1 IC50
Method in brief: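 First, compound is added to PD-1-expressing Jurkat cells in serum-containing DMEM and left 2 h at 37° C. Next, PE-conjugated PD-L1-Ig is introduced at 20 nM final concentration for 1 hour. Finally, cells are fixed in 4% paraformaldehyde with Hoechst 33342, washed and imaged.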

T1 sequence (Q15116 25-288): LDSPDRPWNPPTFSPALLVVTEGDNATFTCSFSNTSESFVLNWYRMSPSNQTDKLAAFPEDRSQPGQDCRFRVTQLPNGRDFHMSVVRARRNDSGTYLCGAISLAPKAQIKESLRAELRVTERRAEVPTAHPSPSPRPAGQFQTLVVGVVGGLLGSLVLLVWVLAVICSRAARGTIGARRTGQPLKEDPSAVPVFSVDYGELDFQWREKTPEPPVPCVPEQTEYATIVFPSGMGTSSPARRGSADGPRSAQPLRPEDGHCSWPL

IC50 [nM] | Compound
240 | CCCC[C@@H]1NC(=O)CSC[C@@H](C(=O)N[C@@H](CCN)C(=O)NCCOCCOCCOCCOCCC(=O)NCCCCCCCCCCCCCCC(=O)O)NC(=O)[C@H](CO)NC(=O)[C@H](C(C)(C)O)NC(=O)[C@H](CC2CCCCC2)NC(=O)[C@H](CCN)NC(=O)[C@@H](CC(C)C)NC(=O)[C@H](CCCN)NC(=O)[C@H](Cc2ccc(C(=O)O)cc2)NC(=O)[C@H](Cc2ccc(-c3ccccc3)cc2)NC(=O)[C@H](Cc2ccc(C(=O)O)cc2)NC(=O)[C@H](Cc2cccc(C(F)(F)F)c2)NC(=O)[C@H](CC(=O)O)NC(=O)[C@H](Cc2ccc(OCC(=O)O)cc2)NC1=O [Compound 2912] ({CH2CO}-[Nle]Y(Carboxymethyl)D[Phe(3-CF3)][Phe(4-COOH)][Bip][Phe(4-COOH)][Orn][dL][Dab][Cha][Val(3-OH)]SC[Dab][PEG4]-{NH(CH2)14COOH}; thioether N-14)
631 | CCCC[C@@H]1NC(=O)CSC[C@@H](C(=O)N[C@@H](CCN)C(=O)NCCCCCCCCCCCCCCC(=O)O)NC(=O)[C@H](CO)NC(=O)[C@H](C(C)(C)O)NC(=O)[C@H](CC2CCCCC2)NC(=O)[C@H](CCN)NC(=O)[C@@H](CC(C)C)NC(=O)[C@H](CCCN)NC(=O)[C@H](Cc2ccc(C(=O)O)cc2)NC(=O)[C@H](Cc2ccc(-c3ccccc3)cc2)NC(=O)[C@H](Cc2ccc(C(=O)O)cc2)NC(=O)[C@H](Cc2cccc(C(F)(F)F)c2)NC(=O)[C@H](CC(=O)O)NC(=O)[C@H](Cc2ccc(OCC(=O)O)cc2)NC1=O [Compound 2913] ({CH2CO}-[Nle]Y(Carboxymethyl)D[Phe(3-CF3)][Phe(4-COOH)][Bip][Phe(4-COOH)][Orn][dL][Dab][Cha][Val(3-OH)]SC[Dab]-{NH(CH2)14COOH}; thioether N-14)
24 | CC(C)C[C@H]1NC(=O)[C@H](CCCN)NC(=O)[C@H](Cc2ccc(C(=O)O)cc2)NC(=O)[C@H](Cc2ccc(-c3ccccc3)cc2)NC(=O)[C@H](Cc2ccc(C(=O)O)cc2)NC(=O)[C@H](Cc2cccc(C(F)(F)F)c2)NC(=O)[C@H](CC(=O)O)NC(=O)[C@H](Cc2ccc(OCC(=O)O)cc2)NC(=O)[C@H](CN2CCOCC2)NC(=O)CSC[C@@H](C(=O)N[C@@H](CCN)C(=O)NCCOCCOCC(=O)NCCOCCOCC(=O)NCCCCCCCCCCCCC(=O)O)NC(=O)[C@H](CO)NC(=O)[C@H](C(C)(C)O)NC(=O)[C@H](CC2CCCCC2)NC(=O)[C@H](CCN)NC1=O [Compound 2914] ({CH2CO}-[Ala(morpholin-4-yl)]Y(Carboxymethyl)D[Phe(3-CF3)][Phe(4-COOH)][Bip][Phe(4-COOH)][Orn][dL][Dab][Cha][Val(3-OH)]SC[Dab][AEEA][AEEA]-{NH(CH2)12COOH}; thioether N-14)
176 | CC(C)C[C@H]1NC(=O)[C@H](CCCN)NC(=O)[C@H](Cc2ccc(C(=O)O)cc2)NC(=O)[C@H](Cc2ccc(-c3ccccc3)cc2)NC(=O)[C@H](Cc2ccc(C(=O)O)cc2)NC(=O)[C@H](Cc2cccc(C(F)(F)F)c2)NC(=O)[C@H](CC(=O)O)NC(=O)[C@H](Cc2ccc(OCC(=O)O)cc2)NC(=O)[C@H](CN2CCOCC2)NC(=O)CSC[C@@H](C(=O)N[C@@H](CCN)C(=O)NCCOCCOCC(=O)NCCOCCOCC(=O)NCCCCCCCCCCCCCCC(=O)O)NC(=O)[C@H](CO)NC(=O)[C@H](C(C)(C)O)NC(=O)[C@H](CC2CCCCC2)NC(=O)[C@H](CCN)NC1=O [Compound 2915] ({CH2CO}-[Ala(morpholin-4-yl)]Y(Carboxymethyl)D[Phe(3-CF3)][Phe(4-COOH)][Bip][Phe(4-COOH)][Orn][dL][Dab][Cha][Val(3-OH)]SC[Dab][AEEA][AEEA]-{NH(CH2)14COOH}; thioether N-14)
25.3 | CC(C)C[C@H]1NC(=O)[C@H](CCCN)NC(=O)[C@H](Cc2ccc(C(=O)O)cc2)NC(=O)[C@H](Cc2ccc(-c3ccccc3)cc2)NC(=O)[C@H](Cc2ccc(C(=O)O)cc2)NC(=O)[C@H](Cc2cccc(C(F)(F)F)c2)NC(=O)[C@H](CC(=O)O)NC(=O)[C@H](Cc2ccc(OCC(=O)O)cc2)NC(=O)[C@H](CN2CCOCC2)NC(=O)CSC[C@@H](C(=O)N[C@@H](CCN)C(=O)NCCOCCOCCOCCOCCC(=O)NCCCCCCCCCCCCC(=O)O)NC(=O)[C@H](CO)NC(=O)[C@H](C(C)(C)O)NC(=O)[C@H](CC2CCCCC2)NC(=O)[C@H](CCN)NC1=O [Compound 2916] ({CH2CO}-[Ala(morpholin-4-yl)]Y(Carboxymethyl)D[Phe(3-CF3)][Phe(4-COOH)][Bip][Phe(4-COOH)][Orn][dL][Dab][Cha][Val(3-OH)]SC[Dab][PEG4]-{NH(CH2)12COOH}; thioether N-14)
135 | CC(C)C[C@H]1NC(=O)[C@H](CCCN)NC(=O)[C@H](Cc2ccc(C(=O)O)cc2)NC(=O)[C@H](Cc2ccc(-c3ccccc3)cc2)NC(=O)[C@H](Cc2ccc(C(=O)O)cc2)NC(=O)[C@H](Cc2cccc(C(F)(F)F)c2)NC(=O)[C@H](CC(=O)O)NC(=O)[C@H](Cc2ccc(OCC(=O)O)cc2)NC(=O)[C@H](CN2CCOCC2)NC(=O)CSC[C@@H](C(=O)N[C@@H](CCN)C(=O)NCCOCCOCCOCCOCCC(=O)NCCCCCCCCCCCCCCC(=O)O)NC(=O)[C@H](CO)NC(=O)[C@H](C(C)(C)O)NC(=O)[C@H](CC2CCCCC2)NC(=O)[C@H](CCN)NC1=O [Compound 2917] ({CH2CO}-[Ala(morpholin-4-yl)]Y(Carboxymethyl)D[Phe(3-CF3)][Phe(4-COOH)][Bip][Phe(4-COOH)][Orn][dL][Dab][Cha][Val(3-OH)]SC[Dab][PEG4]-{NH(CH2)14COOH}; thioether N-14)
22.4 | CC(C)C[C@H]1NC(=O)[C@H](CCCN)NC(=O)[C@H](Cc2ccc(C(=O)O)cc2)NC(=O)[C@H](Cc2ccc(-c3ccccc3)cc2)NC(=O)[C@H](Cc2ccc(C(=O)O)cc2)NC(=O)[C@H](Cc2cccc(C(F)(F)F)c2)NC(=O)[C@H](CC(=O)O)NC(=O)[C@H](Cc2ccc(OCC(=O)O)cc2)NC(=O)[C@H](CN2CCOCC2)NC(=O)CSC[C@@H](C(=O)N[C@@H](CCN)C(=O)NCCCCCCCCCCCCC(=O)O)NC(=O)[C@H](CO)NC(=O)[C@H](C(C)(C)O)NC(=O)[C@H](CC2CCCCC2)NC(=O)[C@H](CCN)NC1=O [Compound 2918] ({CH2CO}-[Ala(morpholin-4-yl)]Y(Carboxymethyl)D[Phe(3-CF3)][Phe(4-COOH)][Bip][Phe(4-COOH)][Orn][dL][Dab][Cha][Val(3-OH)]SC[Dab]-{NH(CH2)12COOH}; thioether N-14)
372 | CC(C)C[C@H]1NC(=O)[C@H](CCCN)NC(=O)[C@H](Cc2ccc(C(=O)O)cc2)NC(=O)[C@H](Cc2ccc(-c3ccccc3)cc2)NC(=O)[C@H](Cc2ccc(C(=O)O)cc2)NC(=O)[C@H](Cc2cccc(C(F)(F)F)c2)NC(=O)[C@H](CC(=O)O)NC(=O)[C@H](Cc2ccc(OCC(=O)O)cc2)NC(=O)[C@H](CN2CCOCC2)NC(=O)CSC[C@@H](C(=O)N[C@@H](CCN)C(=O)NCCCCCCCCCCCCCCC(=O)O)NC(=O)[C@H](CO)NC(=O)[C@H](C(C)(C)O)NC(=O)[C@H](CC2CCCCC2)NC(=O)[C@H](CCN)NC1=O [Compound 2919] ({CH2CO}-[Ala(morpholin-4-yl)]Y(Carboxymethyl)D[Phe(3-CF3)][Phe(4-COOH)][Bip][Phe(4-COOH)][Orn][dL][Dab][Cha][Val(3-OH)]SC[Dab]-{NH(CH2)14COOH}; thioether N-14)
25.7 | CC(C)C[C@H]1NC(=O)[C@H](CCCN)NC(=O)[C@H](Cc2ccc(C(=O)O)cc2)NC(=O)[C@H](Cc2ccc(-c3ccccc3)cc2)NC(=O)[C@H](Cc2ccc(C(=O)O)cc2)NC(=O)[C@H](Cc2cccc(C(F)(F)F)c2)NC(=O)[C@H](CC(=O)O)NC(=O)[C@H](Cc2ccc(OCC(=O)O)cc2)NC(=O)[C@H](CN2CCOCC2)NC(=O)CSC[C@@H](C(=O)N[C@@H](CCN)C(=O)NCCOCCOCC(=O)NCCOCCOCC(=O)NCCCCCCCCCCCCC(=O)O)NC(=O)[C@H](CC(=O)O)NC(=O)[C@H](C(C)(C)O)NC(=O)[C@H](CC2CCCCC2)NC(=O)[C@H](CCN)NC1=O [Compound 2920] ({CH2CO}-[Ala(morpholin-4-yl)]Y(Carboxymethyl)D[Phe(3-CF3)][Phe(4-COOH)][Bip][Phe(4-COOH)][Orn][dL][Dab][Cha][Val(3-OH)]DC[Dab][AEEA][AEEA]-{NH(CH2)12COOH}; thioether N-14)
20.5 | CC(C)C[C@H]1NC(=O)[C@H](CCCN)NC(=O)[C@H](Cc2ccc(C(=O)O)cc2)NC(=O)[C@H](Cc2ccc(-c3ccccc3)cc2)NC(=O)[C@H](Cc2ccc(C(=O)O)cc2)NC(=O)[C@H](Cc2cccc(C(F)(F)F)c2)NC(=O)[C@H](CC(=O)O)NC(=O)[C@H](Cc2ccc(OCC(=O)O)cc2)NC(=O)[C@H](CN2CCOCC2)NC(=O)CSC[C@@H](C(=O)N[C@@H](CCN)C(=O)NCCCCCCCCCCCCC(=O)O)NC(=O)[C@H](CC(=O)O)NC(=O)[C@H](C(C)(C)O)NC(=O)[C@H](CC2CCCCC2)NC(=O)[C@H](CCN)NC1=O [Compound 2921] ({CH2CO}-[Ala(morpholin-4-yl)]Y(Carboxymethyl)D[Phe(3-CF3)][Phe(4-COOH)][Bip][Phe(4-COOH)][Orn][dL][Dab][Cha][Val(3-OH)]DC[Dab]-{NH(CH2)12COOH}; thioether N-14)
423 | CC(C)C[C@H]1NC(=O)[C@H](CCCN)NC(=O)[C@H](Cc2ccc(C(=O)O)cc2)NC(=O)[C@H](Cc2ccc(-c3ccccc3)cc2)NC(=O)[C@H](Cc2ccc(C(=O)O)cc2)NC(=O)[C@H](Cc2cccc(C(F)(F)F)c2)NC(=O)[C@H](CC(=O)O)NC(=O)[C@H](Cc2ccc(OCC(=O)O)cc2)NC(=O)[C@H](C)NC(=O)CSC[C@@H](C(=O)N[C@@H](CCN)C(=O)NCCCCCCCCCCCCCCC(=O)O)NC(=O)[C@H](Cc2c[nH]cn2)NC(=O)[C@H](C(C)(C)O)NC(=O)[C@H](CC2CCCCC2)NC(=O)[C@H](CCN)NC1=O [Compound 2922] ({CH2CO}-AY(Carboxymethyl)D[Phe(3-CF3)][Phe(4-COOH)][Bip][Phe(4-COOH)][Orn][dL][Dab][Cha][Val(3-OH)]HC[Dab]-{NH(CH2)14COOH}; thioether N-14)
